# According to US20060084704A1, “Methods and compositions for enhancing degradation of nuclear receptor transcription factors and uses thereof” (priority 2004, published 2006):
# Tests used:
# AR = biological target: T1, AR (Homo sapiens, UniProt P10275, T878A); assay: Western blot analysis of AR expression in JC9-treated LNCaP cells over 5 days; assay type: cell-based
# T1 construct: LNCaP cells express an endogenous mutant AR that is found in prostate cancer patients; host or cells: LNCaP
# T1 sequence (P10275 1-920 T878A): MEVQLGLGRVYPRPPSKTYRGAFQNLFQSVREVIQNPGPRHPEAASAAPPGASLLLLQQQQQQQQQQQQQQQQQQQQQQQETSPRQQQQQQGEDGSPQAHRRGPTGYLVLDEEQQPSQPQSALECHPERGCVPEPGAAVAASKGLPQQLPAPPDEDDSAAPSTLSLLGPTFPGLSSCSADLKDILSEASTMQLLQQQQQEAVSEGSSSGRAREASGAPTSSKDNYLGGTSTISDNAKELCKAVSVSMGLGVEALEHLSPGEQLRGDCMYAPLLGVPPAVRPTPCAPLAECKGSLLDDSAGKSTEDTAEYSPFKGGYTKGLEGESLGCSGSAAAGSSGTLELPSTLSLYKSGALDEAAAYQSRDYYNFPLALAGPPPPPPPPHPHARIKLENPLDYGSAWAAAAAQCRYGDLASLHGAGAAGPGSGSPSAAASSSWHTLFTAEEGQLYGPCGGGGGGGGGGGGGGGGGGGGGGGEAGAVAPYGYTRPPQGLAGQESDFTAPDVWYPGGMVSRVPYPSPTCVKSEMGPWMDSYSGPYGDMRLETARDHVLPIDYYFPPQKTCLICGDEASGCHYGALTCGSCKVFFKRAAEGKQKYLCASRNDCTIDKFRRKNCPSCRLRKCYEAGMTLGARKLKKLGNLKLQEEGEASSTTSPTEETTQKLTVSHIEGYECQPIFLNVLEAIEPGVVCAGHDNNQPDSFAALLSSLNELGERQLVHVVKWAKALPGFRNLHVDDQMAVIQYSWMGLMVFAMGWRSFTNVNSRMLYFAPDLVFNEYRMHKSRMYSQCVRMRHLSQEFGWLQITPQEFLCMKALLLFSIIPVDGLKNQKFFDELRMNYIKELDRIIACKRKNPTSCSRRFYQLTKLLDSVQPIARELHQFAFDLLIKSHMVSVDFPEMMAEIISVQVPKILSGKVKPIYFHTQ
# Excerpt: A Western blot method suitable for detecting degradation of the androgen receptor (AR) has been previously described (Su et al., 1999). Briefly, cells (for example, LNCap cells) are harvested either in 2× sodium dodecyl sulfate (SDS) loading buffer or in radioimmunoprecipitation assay (RIPA) lysis buffer (see “Antibodies: A Laboratory Manual”, E. Harlow and D. Lane, Cold Spring Harbor Laboratory, 1988) containing 10 micrograms/milliliter of benzamidine, 10 micrograms/milliliter of trypsin inhibitor, and 1 millimolar of phenylmethylsulfonyl fluoride (PMSF). Total protein (40 micrograms/sample, or as desired) from cell lysate is separated on a SDS-PAGE gel. […] The membrane is rinsed with PBST, and a suitable visualization procedure is used to detect the secondary antibody (for example, horseradish peroxidase can be detected with a colorimetric substrate or by a chemiluminescent substrate such as that provided by the enhanced chemiluminescence (ECL Plus) kit from Amersham). […] Quantification of the protein signals can be carried out by densitometry, using appropriate software (ImageJ software from the National Institutes of Health).
# AR is the key factor in regulating prostate cancer cells' response to androgens. […] A color detection method was subsequently employed to examine AR and actin protein signals in the membranes, and the resultant protein signals were quantitated by densitometry. […]
# androgen receptor (AR) = biological target: T2, androgen receptor (AR) (Homo sapiens, UniProt P10275, T878A); assay: Western blot of LNCaP cell lysates, AR; assay type: cell-based; settings: 1 or 2 micromolar, 24 hours, presence or absence of DHT
# T2 construct: LNCaP cells express an endogenous mutant AR that is found in prostate cancer patients; host or cells: LNCaP
# T2 sequence (P10275 1-920 T878A): T1 sequence (P10275 1-920 T878A)
# Description: Human prostate cancer LNCaP cells and T47D cells were plated at a density of 7×10^5 cells per 60 millimeter tissue culture dish in […] (RPMI) medium containing 10% FBS. The medium was changed to RPMI or DME medium containing 10% charcoal-stripped serum 24 hours later to deplete cellular androgens or estrogens. After another 24 hours, treatment with the test compounds began. The test dose of JC15 was 1 or 2 micromolar and the test does of JC9 was 1, 5 and 10 micromolar. LNCap cells also received dihydrotestosterone (DHT) (3 nanomolar). Control cells received a corresponding amount of the vehicle, dimethylsulfoxide (DMSO) (<0.04%) for an equivalent exposure time. Cells were incubated with JC15 for 24 or 48 hours, and were lysed in 250 microliters of 1×SDS/PAGE loading buffer. Approximately 40 micrograms of total cellular protein was loaded in each lane of a pre-cast gel (NuPAGE, Invitrogen). Protein separation and transfer were performed following the manufacturer's instructions.
# For the prostate cell lysates, androgen receptor (AR) protein was visualized by incubating the resultant membranes with an anti-AR antibody (BD-PharMingen), followed by chemiluminescence detection (ECL Plus, Amersham). […] The resultant protein signals were quantified using densitometry and NIH ImageJ software.
cellular concentration of AR (androgen receptor (AR)),SMILES,"time at which AR reduction was first observed (AR; 5 μM JC9, continuous incubation)","AR level remaining (normalized AR signal, percentage of baseline Day 0) (AR; 5 μM JC9, end of 5-day incubation)"
–,"COc1ccc(C=CC(=O)C=C(O)C=Cc2ccc(OC)c(OC)c2)cc1OC [JC9, 5-hydroxy-1,7-bis(3,4-dimethoxyphenyl)-1,4,6-heptatrien-3-one]",2 days,~10%
decreased,"CCOC(=O)CCC(C(=O)C=Cc1ccc(O)c(OC)c1)C(=O)C=Cc1ccc(O)c(OC)c1 (stereo not drawn) [JC15, 7-(4-hydroxy-3-methoxyphenyl)-4-[3-(4-hydroxy-3-methoxyphenyl)acryloyl]-5-oxo-hept-6-enoic acid ethyl ester]",–,–
